According to US9504673B2, “Agent for the prophylaxis and treatment of highly pathogenic infectious diseases” (priority 2009, dated 2016):
“And” between values parts separate entries of the source, which are not always exact repeats. Equal entries are not always repeated. Where two headings read alike, the source gives them in different places.

Columns and labels:
[1] = test system: influenza virus strain A/chicken/Kurgan/Russia/02/05 (H5N1); set-up: species or system white mice; settings: mouse, in vivo, po
[2] = test system: severe acute respiratory syndrome virus; set-up: species or system Syrian hamsters; settings: hamster, in vivo, po
[3] = Acute toxicity study of glutaryl histamine; settings: male, nonlinear white (outbred), mouse, in vivo, po

SMILES	Death rate ([1]; 135 mg/kg)	Increase of mean lifetime Δ ([1]; 135 mg/kg)	Mean lifetime of animals in the group ([1]; 135 mg/kg)	Death rate ([1]; 5 mg/kg)	Deaths ([1]; 5 mg/kg)	Increase of mean lifetime Δ ([1]; 5 mg/kg)	Mean lifetime of animals in the group ([1]; 5 mg/kg)	Protective efficacy against death, % ([1]; 5 mg/kg)	Death rate ([1]; 15 mg/kg)	Increase of mean lifetime Δ ([1]; 15 mg/kg)	Mean lifetime of animals in the group ([1]; 15 mg/kg)	Protective efficacy against death, % ([1]; 15 mg/kg)	Therapeutic efficacy, % ([2]; 5 mg/kg)	Virus yield in the lungs at peak of infection (on day 4) 1 g PFU/ml ([2]; 5 mg/kg)	Virus yield in the lungs at peak of infection (on day 4) Δ, 1 g ([2]; 5 mg/kg)	Therapeutic efficacy, % ([2]; 15 mg/kg)	Virus yield in the lungs at peak of infection (on day 4) 1 g PFU/ml ([2]; 15 mg/kg)	Virus yield in the lungs at peak of infection (on day 4) Δ, 1 g ([2]; 15 mg/kg)	LD50 [3]
CCOC(=O)c1c(CSc2ccccc2)n(C)c2cc(Br)c(O)c(CN(C)C)c12 [Arbidol ®, reference compound]	15/20 and 18/20	1.4 days and 1.1 days	8.0 days and 7.2 days	–	–	–	–	–	–	–	–	–	–	–	–	–	–	–	–
O=C(O)CCCC(=O)NCCc1c[nH]cn1 [glutaryl histamine]	–	–	–	12/20	11	2.7 days and 1.8 days	10.9 days and 10.0 days	45% and 40%	12/20 and 13/20	2.4 days and 2.0 days	11.0 days and 8.7 days	40% and 35%	20.0% and 30.0%	7.5 1 g PFU/ml and 7.0 1 g PFU/ml	0.8 1 g and 0.9 1 g	40%	3.8 1 g PFU/ml	2.4 1 g	> 10000 mg/kg
